Earlier results in US11051972B1 (priority 2020, dated 2021).
Where two headings read alike, the source gives them in different places.

How the values were obtained:
[1] = test system: novel coronavirus (COVID-19); conditions: multi-center study in China, journal article [14, 20]

| Compound | % Excreted Unchanged or Active Metabolite in Urine (urine) [%] | % Excreted Unchanged or Active Metabolite in Urine (in vivo) [%] | effectiveness against the novel coronavirus (COVID-19) [1] |
| --- | --- | --- | --- |
| CCC(CC)COC(=O)[C@H](C)N[P@](=O)(OC[C@H]1O[C@@](C#N)(c2ccc3c(N)ncnn23)[C@H](O)[C@@H]1O)Oc1ccccc1 [Remdesevir] | 60 |  |  |
| CCN(CC)CCCC(C)Nc1ccnc2cc(Cl)ccc12 (stereo not shown) [Chloroquine] |  | 70 | effective |
| CC(=O)N[C@H]1[C@H]([C@H](O)[C@H](O)CO)OC(C(=O)O)=C[C@@H]1N=C(N)N [Relenza] | 90 |  |  |
| C[C@H]1COc2c(N3CCN(C)CC3)c(F)cc3c(=O)c(C(=O)O)cn1c23 [Levaquin] |  | 85 |  |
| CCOC(=O)C1=C[C@@H](OC(CC)CC)[C@H](NC(C)=O)[C@@H](N)C1 [Tamiflu] | 90 |  |  |
| CCC(CC)[C@H](NC(C)=O)[C@@H]1[C@H](O)[C@@H](C(=O)O)C[C@H]1N=C(N)N [Rapivab] | 90 |  |  |
